Consider ten molecules from patent US6797699B1, “Neuroprotective agents” (University of Southampton, priority 1997, dated 2004).

Data set [1] has as its system CA1 pyramidal cell layer of organotypic hippocampal slice cultures. The experiment in a line: Hypoxic neuronal damage in organotypic hippocampal slice cultures (propidium iodide fluorescence). Format: cell-based, Wistar rat. Here is the method:
Hypoxic neuronal damage was studied using organotypic hippocampal slice cultures [Pringle A. K. et al. (1996 Stroke 27 2124-2130)].
Cultures were prepared according to the method of Stoppini et al (1991 J. Neurosci. Meth. 37 173-182) from 8-10 day old Wistar rat pups (Bioresources Unit, University of Southampton). Cultures were maintained in vitro for 14 days (37° C., 5% CO2) during which the medium (50% minimum essential medium (MEM), 25% Hank's balanced salt solution (HBSS), 25% heat-inactivated horse serum, supplemented with 1 mM glutamine, 5 mg/ml glucose and 1.5% fungizone) was changed every 3 days. Hypoxia was induced by replacing culture medium with serum-free (SF) medium (75% MEM, 25% HBSS, 1 mM glutamine, 5 mg/ml glucose, 1.5% fungizone) saturated with 95% N2/5% CO2 (and thus oxygen-free), and placing cultures in an air-tight chamber in which the atmosphere was also saturated with N2/CO2. After 180 minutes hypoxia, cultures were replated in normoxic SF medium and replaced in the incubator for 24 hours. Compounds were added to cultures either pre-, during and post-hypoxia (herein abbreviated to “pdp”) or just in the post-hypoxic recovery period (“post”) [Johnson, T. D. (1996 Trends Pharmacol. Sci. 22-27)]. Cell damage was evaluated using the fluorescent exclusion dye propidium iodide (PI, 5 μg/ml) which is normally excluded from healthy cells, but enters cells with damaged plasma membranes and becomes highly fluorescent when bound to DNA. Neuronal cell damage was quantified using the “NIH Image 1.55” software (written by Wayne Rasband at the U.S. National Institutes for Health and available from the internet by anonymous ftp from zippy.nimh.nih.gov). Briefly, the area of the CA1, CA3 and dentate gyrus (DG) cell layers was measured from a transmission image. 24 hours after the commencement of hypoxia, a fluorescence image was captured using a standard Leica inverted fluorescence microscope fitted with a rhodamine filter set. The area of PI fluorescence above background in the neuronal cell layers was determined using the density slice function of Image. Cellular damage is expressed as the percentage area of the cell body layers in which PI fluorescence was detectable. After imaging, cultures were fixed overnight in 4% paraformaldehyde and stained with thionin.
Data are expressed as the mean±sem. Data from the non-drug groups was pooled before analysis. Statistical significance was determined using one-way analysis of variance (ANOVA) followed by post-hoc non-paired Student's t-tests. As only cells within the CA1 region were susceptible to hypoxia-induced damage, all of the pharmacological data was calculated for this region alone.
Table 1 represents the quantification of the percentage area of the CA1 pyramidal cell layer in which PI fluorescence was detectable 24 hours after 3 hours of hypoxia (% Damage CA1). Data from all of the cultures exposed to hypoxia alone were pooled (control hypoxia). The percentage neuroprotection was calculated as the (((% damage control hypoxia-% damage drug treated)/% damage control hypoxia) 100). Data are expressed as the mean±sem, n=number of cultures, *p<0.05, **<0.01, ***p<0.001 vs hypoxia control.

The next data set concerns mice. The note with it: FTX isolated from funnel-web spider toxin; Proc. Natl. Acad. Sci. USA 86, 1689-1693 (1989); cited from earlier work.
Setting [2] is: Table 1, 300 μM added post-hypoxia, 3 h hypoxia, PI at 24 h, control hypoxia 35.6 ± 1.43, mean±sem.
The mark [3] stands for this setting: Table 1, 300 μM added post-hypoxia, vs control hypoxia.

“Also recorded” adds a separate entry of the source. Marks after values point to notes of the source that are not given here.

For the molecule `NCCCCNCCCNC(=O)C(N)CCCCN` [B, N^1-L-Lysinylspermidine], the “neuroprotective effect / reduction of PI fluorescence in CA1 (in words)” value (“neuroprotective effect / reduction” for short) was “also protective, although to a lesser extent” in data set [1] (300 μM added post-hypoxia) and “small but significant reduction in PI fluorescence; also recorded: active” in data set [1] (300 μM added post-hypoxia, listed as L-LysSp). Moreover, in data set [1] (setting [2]), the “% Damage CA1” value was 27.0 ± 3.7* %. For the same molecule, the “% Protection” value in data set [1] (setting [3]) was 24.2%.
Turning to `NCCCCNCCCNC(=O)C(N)CCCN` [C, N^1-L-Ornithylspermidine], the “neuroprotective effect / reduction” value in data set [1] (300 μM added post-hypoxia) is recorded as “also protective, although to a lesser extent”; in data set [1] (300 μM added post-hypoxia, listed as L-OrnSp), “less of a significant reduction in damage; also recorded: active”. Besides, the “% Damage CA1” value in data set [1] (setting [2]) stood at 30.6 ± 3.8%. Further, the “% Protection” value in data set [1] (setting [3]) was found to be 14.0%.
Regarding `NCCCCNCCCNC(=O)C(N)CCCNC(N)=O` (stereo not drawn) [Compound I], the “neuroprotective effect / reduction” value in data set [1] (300 μM added post-hypoxia) is given as “significant protective effect”. Moreover, the “% Protection” value in data set [1] (Table 6, 300 μM post) was found to be 53%. Also, the “% Damage CA1” value in data set [1] (Table 6, 300 μM post, hypoxia control 23.2 ± 4.9) is 10.9 ± 5.7* %.
In the case of `NC(N)=NCCCC(N)C(=O)O` [D-Arg, reference compound], the “% Damage CA1” value in data set [1] (setting [2]) is given as 32.7 ± 7.0%. Besides, the “% Protection” value in data set [1] (setting [3]) is recorded as 8.1%.
Turning to `N=C(N)NCCCC(N)C(=O)NCCCNCCCN` (stereo not drawn) [FTX], the “toxicity to mice (in words)” value in the data set with mice is given as “toxic to mice in extremely small doses”.
For `N=C(N)NCCC[C@H](N)C(=O)O` [L-Arg, L-arginine, reference compound], the “neuroprotective effect / reduction” value in data set [1] (300 μM added post-hypoxia) is listed as “no efficacy was detected”; in data set [1] (300 μM added post-hypoxia, listed as L-arginine) it was “Neither spermidine nor L-arginine individually produced a reduction in damage”. Moreover, in data set [1] (setting [2]), the “% Damage CA1” value was found to be 38.5 ± 4.0%. Besides, the “% Protection” value in data set [1] (setting [3]) stood at 0%.
For the molecule `NCCCCNCCCN` [Spermidine, spermidine, reference compound], the “neuroprotective effect / reduction” value in data set [1] (300 μM added post-hypoxia) was “no neuroprotective effects; also recorded: no efficacy was detected”. Besides, the “% Damage CA1” value in data set [1] (setting [2]) turned out to be 34.2 ± 5.4%. Also, the “% Protection” value in data set [1] (setting [3]) is reported as 3.9%.
As for N1-D-Arginylspermidine [Compound Z^1], the “neuroprotective effect / reduction” value in data set [1] (300 μM added post-hypoxia, listed as D-ArgSp) was “did not result in any observable reduction of PI fluorescence; also recorded: inactive”. Moreover, in data set [1] (setting [2]), the “% Damage CA1” value is given as 32.6 ± 4.1%. For the same molecule, the “% Protection” value in data set [1] (setting [3]) is reported as 8.4%.
With N^1-D-Lysinylspermidine [Compound Z^2], in data set [1] (300 μM added post-hypoxia, listed as D-LysSp), the “neuroprotective effect / reduction” value was “did not result in any observable reduction of PI fluorescence; also recorded: inactive”. The “% Damage CA1” value in data set [1] (setting [2]) amounted to 36.3 ± 3.5%. Also, the “% Protection” value in data set [1] (setting [3]) is 0%.
On to N^1-D-Ornithylspermidine [Compound Z^3], for which the “neuroprotective effect / reduction” value in data set [1] (300 μM added post-hypoxia) was “did not result in any observable reduction of PI fluorescence”. The “% Damage CA1” value in data set [1] (setting [2]) is on record as 36.71 ± 3.2%. Besides, in data set [1] (setting [3]), the “% Protection” value was determined as 0%.
